This note sets out measurements from PubChem BioAssay (NCI).

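Compound exposure: 48 hours, 5 concentrations, 96-well plates. Definition used: TGI = concentration required for complete inhibition of growth.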 Where only a bound is given, the exact number is not on record here.

Experiment in all cases: DTP human tumour cell line panel, 48 h
In assay [1] the test system is NCI/ADR-RES ovarian.
Assay [2] concerns DU-145 prostate.
Assay [3] relates to SK-MEL-2 melanoma.
For assay [4], the system named is HCC-2998 colon.
Assay [5] deals with SNB-19 CNS.
Assay [6] relates to HOP-62 NSCLC.
The test system of assay [7] is UACC-62 melanoma.
For assay [8], the system named is UO-31 renal.
Assay [9] has as its system RXF 393 renal.
The subject of assay [10] is K-562 leukemia.
Assay [11] concerns T-47D breast.
Assay [12] deals with HT29 colon.

For orientation: TGI means the concentration giving total growth inhibition. Low readings indicate more potent growth arrest, high ones less potent growth arrest. As for `CC(=O)OC(C)c1cc2c(s1)C(=O)c1ccsc1C2=O` (stereo unspecified), the TGI in [1] was 0.992 µM; in assay [2], 0.242 µM; in assay [3] it was 0.927 µM; in [4] it was 1.54 µM; in assay [5], 0.317 µM; in [6] it was 0.281 µM. In addition, the TGI is 0.23 µM in assay [7]; 0.354 µM in [8]; 0.496 µM in assay [9]; 0.473 µM in assay [10]; 1.79 µM in assay [11].
`COC(=O)[C@H](C)N(C)C(=O)[C@H](C)N1[C@@H](c2ccccc2)COC1(C)C`: the TGI in assay [1], in assay [3], in assay [5], in [12], in [6] and in assay [7] was more than 100 µM each time. Besides, the TGI in assay [8], in [9], in [10] and in [11] was more than 100 µM in each case.
As for `CCOC(=O)/C(=C\c1c(C)[nH]c2ccccc12)P(=O)(OCC)OCC`, the concentration for total growth inhibition (TGI) in [1], in assay [2], in [4], in [5], in assay [12] and in assay [6] was more than 100 µM each time. Besides, the total growth inhibition concentration (TGI) in [7], in [9], in assay [10] and in assay [11] was more than 100 µM throughout.
`Oc1cccc2ccc(Br)nc12`: the TGI in assay [1], in [2], in assay [4], in [5], in assay [12] and in assay [6] was more than 100 µM in each case. The TGI in assay [7], in [8], in assay [9], in [10] and in [11] was more than 100 µM each time.
`CCOc1nc2sc3c(c2c(=O)n1CCSSCCn1c(OCC)nc2sc4c(c2c1=O)CCCC4)CCCC3`: the TGI in [1], in [2], in assay [3], in [4], in assay [5] and in [12] was more than 100 µM each time. Besides, the total growth inhibition concentration (TGI) in assay [6], in [7], in assay [8], in [10] and in [11] was more than 100 µM each time.
On to `CN1N=C(c2ccccc2)c2cc(Cl)ccc2N=C1N/N=C/c1ccc(N(C)C)cc1`, for which the total growth inhibition concentration (TGI) in assay [1], in [2], in assay [4], in [5], in assay [12] and in assay [6] was more than 100 µM each time. For the same compound, the concentration for total growth inhibition (TGI) in [7], in assay [8], in assay [9], in assay [10] and in [11] was more than 100 µM in each case.
With `CCOC(=O)c1nc2cc(F)cc(F)c2[nH]c1=O`, the TGI in assay [1], in assay [2], in assay [3], in [4], in assay [5] and in [12] was more than 100 µM each time. The concentration for total growth inhibition (TGI) in assay [6], in assay [7], in assay [8], in assay [10] and in assay [11] was more than 100 µM in each case.
Regarding `Cc1ccc(O)c(C(c2cc(C)ccc2O)c2cc([N+](=O)[O-])ccc2O)c1`, the concentration for total growth inhibition (TGI) in [1] stood at 66.8 µM; in assay [2] it was 50.3 µM; in [3], 28.2 µM; in assay [4] it was 25.5 µM; in assay [12] it was 38.3 µM; in [6], 26.3 µM. In addition, the total growth inhibition concentration (TGI) was 36.6 µM in assay [7]; 21.5 µM in assay [8]; 54 µM in assay [9]; more than 100 µM in assay [10]; 77.8 µM in assay [11].
As for `N[C@H]1CCN(c2c(F)cc3c(=O)c(C(=O)O)cn4c3c2Oc2c-4ccc3c2ccc2ccccc23)C1`, the TGI in assay [1] was more than 100 µM; in [2], more than 62.7 µM; in assay [3], more than 100 µM; in assay [5], more than 100 µM; in assay [12] it was more than 100 µM; in assay [6] it was more than 100 µM. Further, the concentration for total growth inhibition (TGI) in [7] is more than 100 µM; in assay [8] it was more than 71.3 µM; in assay [9], 16.6 µM; in assay [11], more than 100 µM.
In the case of `O=C1c2c(O)cccc2Cc2cc(CO)cc(O)c21`, the TGI in assay [1] is 15.1 µM; in assay [4] it was 18.4 µM; in assay [5], 36.6 µM; in assay [12] it was more than 100 µM; in assay [6], 11.9 µM; in assay [8], 4.97 µM. Further, the TGI in assay [10] is more than 100 µM; in assay [11], 11.9 µM.
For the compound `CC(C)(C)NC(=S)N/N=C/c1ccccn1`, the total growth inhibition concentration (TGI) in assay [1], in assay [2], in [3], in [4], in [5] and in assay [12] was more than 100 µM each time. For the same compound, the TGI in assay [6] is more than 79.8 µM; in [7], 37.3 µM; in [8] it was more than 47.8 µM; in [9], more than 100 µM; in assay [11], more than 100 µM.
For the compound `N#Cc1c(N)c2c(c(-c3ccccc3)c1-c1ccccc1)C(=O)N(O)C2=O`, the concentration for total growth inhibition (TGI) in assay [1], in assay [2], in [3], in [4], in assay [5] and in assay [7] was more than 100 µM throughout. The total growth inhibition concentration (TGI) in assay [8] was more than 100 µM; in assay [9], 44.3 µM; in [10], more than 100 µM; in assay [11], 73.9 µM.
On to `O=C1NC(N2CCCCC2)=N/C1=C\c1ccco1`, for which the TGI in assay [1], in assay [2], in assay [3], in assay [4], in assay [5] and in assay [12] was more than 100 µM each time. In addition, the TGI in assay [6], in assay [7], in [8], in [9] and in assay [11] was more than 100 µM each time.
